Holding throughout (assay type): cell-based
One series has as its target T1, 5-HT2C receptor (Homo sapiens, UniProt P28335).
T1 construct: expressed in transfected cells; host or cells: HEK293T
T1 sequence (P28335 33-458): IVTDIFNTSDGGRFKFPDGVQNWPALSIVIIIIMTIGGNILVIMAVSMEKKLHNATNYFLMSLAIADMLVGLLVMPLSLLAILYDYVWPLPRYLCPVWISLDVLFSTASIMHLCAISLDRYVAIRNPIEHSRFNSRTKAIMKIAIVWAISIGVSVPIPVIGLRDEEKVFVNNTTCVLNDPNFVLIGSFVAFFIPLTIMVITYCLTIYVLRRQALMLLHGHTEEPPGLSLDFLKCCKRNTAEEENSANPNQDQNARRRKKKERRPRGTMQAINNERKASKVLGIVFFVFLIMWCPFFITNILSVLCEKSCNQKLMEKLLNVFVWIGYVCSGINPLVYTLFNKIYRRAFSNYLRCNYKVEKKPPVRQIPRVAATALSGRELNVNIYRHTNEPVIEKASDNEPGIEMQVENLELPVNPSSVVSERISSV
Kind of series: cell-based. The settings on record: Table 2; for EC50: at least three replicate trials, read-out: 5-HT2C BRET EC50; for 5-HT2C BRET Eff %: normalized to % 5-HT stimulation.

Series [1] has as its target T2, human ether-a-go-go-related gene (hERG) K+ channel (Homo sapiens, UniProt Q12809).
T2 construct: Eurofins
Kind of series: Eurofins hERG Qube APC Assay. The settings on record: for IC50 (hERG)/EC50 (5-HT2A) ratio: Table 4; for hERG risk potential: based on IC50 (hERG)/EC50 (5-HT2A) ratio. The source says:
As used herein and unless otherwise specified, the term “hERG risk” refers to the risk of a compound potentially inhibiting the human ether-a-go-go-related gene (hERG) K^+ channel, thereby leading to QT prolongation.
As a result of, many compounds disclosed in Table 1 and Table 2 were screened for the potential of “hERG risk” using pharmacological assays (e.g. Eurofins™ hERG Qube APC Assay). […].
Background: The hERG channel carries a current that helps repolarise heart muscle cells.

The target of the next series is T3, 5-HT2A receptor (Homo sapiens, UniProt P28223).
T3 construct: expressed in transfected cells; host or cells: HEK293T
T3 sequence (P28223 whole entry): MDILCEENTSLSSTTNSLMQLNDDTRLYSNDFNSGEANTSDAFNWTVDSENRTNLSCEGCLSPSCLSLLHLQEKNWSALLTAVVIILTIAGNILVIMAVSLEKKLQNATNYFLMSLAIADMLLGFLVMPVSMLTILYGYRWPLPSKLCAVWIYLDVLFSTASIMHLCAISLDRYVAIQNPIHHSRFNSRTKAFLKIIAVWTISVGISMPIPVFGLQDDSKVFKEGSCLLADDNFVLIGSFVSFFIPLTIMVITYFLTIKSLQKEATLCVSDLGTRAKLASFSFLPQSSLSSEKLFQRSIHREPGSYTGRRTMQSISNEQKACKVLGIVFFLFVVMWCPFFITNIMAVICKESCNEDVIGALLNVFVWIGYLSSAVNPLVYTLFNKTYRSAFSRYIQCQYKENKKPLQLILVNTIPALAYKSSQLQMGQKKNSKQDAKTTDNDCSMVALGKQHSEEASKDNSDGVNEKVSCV
Kind of series: 5-HT2A Gq dissociation BRET functional assay. The following applies: for 5-HT2A BRET Eff %: normalized to % 5-HT stimulation.

The next series concerns the target T4, 5-HT2B receptor (Homo sapiens, UniProt P41595).
T4 construct: expressed in transfected cells; host or cells: HEK293T
Kind of series: 5-HT2B Gq dissociation BRET functional assay. The following applies: Table 2; for EC50: at least three replicate trials; for 5-HT2B BRET Eff %: normalized to % 5-HT stimulation. (In general: Bioluminescence resonance energy transfer reports proximity on the nanometre scale.)

Setting [2] is: 5-HT2A BRET EC50 (nM), Table 2, at least three replicate trials.
Setting [3] is: EC50 BRET 2A, Table 4, unit inferred.
Where [4] appears, read: Table 2, at least three replicate trials, read-out: 5-HT2A BRET EC50.

The results in this text go back to patent US20250074871A1, “PHENETHYLAMINES AND METHODS OF PREPARATION THEREOF” (priority 2022, published 2025).

One may read the EC50 as the concentration that produces a half-maximal response. The term IC50 denotes the concentration needed to halve the response being measured. Higher therefore signals lower potency.

Like-named read-outs stand apart in the source and are kept apart here.

T2 sequence (Q12809 whole entry): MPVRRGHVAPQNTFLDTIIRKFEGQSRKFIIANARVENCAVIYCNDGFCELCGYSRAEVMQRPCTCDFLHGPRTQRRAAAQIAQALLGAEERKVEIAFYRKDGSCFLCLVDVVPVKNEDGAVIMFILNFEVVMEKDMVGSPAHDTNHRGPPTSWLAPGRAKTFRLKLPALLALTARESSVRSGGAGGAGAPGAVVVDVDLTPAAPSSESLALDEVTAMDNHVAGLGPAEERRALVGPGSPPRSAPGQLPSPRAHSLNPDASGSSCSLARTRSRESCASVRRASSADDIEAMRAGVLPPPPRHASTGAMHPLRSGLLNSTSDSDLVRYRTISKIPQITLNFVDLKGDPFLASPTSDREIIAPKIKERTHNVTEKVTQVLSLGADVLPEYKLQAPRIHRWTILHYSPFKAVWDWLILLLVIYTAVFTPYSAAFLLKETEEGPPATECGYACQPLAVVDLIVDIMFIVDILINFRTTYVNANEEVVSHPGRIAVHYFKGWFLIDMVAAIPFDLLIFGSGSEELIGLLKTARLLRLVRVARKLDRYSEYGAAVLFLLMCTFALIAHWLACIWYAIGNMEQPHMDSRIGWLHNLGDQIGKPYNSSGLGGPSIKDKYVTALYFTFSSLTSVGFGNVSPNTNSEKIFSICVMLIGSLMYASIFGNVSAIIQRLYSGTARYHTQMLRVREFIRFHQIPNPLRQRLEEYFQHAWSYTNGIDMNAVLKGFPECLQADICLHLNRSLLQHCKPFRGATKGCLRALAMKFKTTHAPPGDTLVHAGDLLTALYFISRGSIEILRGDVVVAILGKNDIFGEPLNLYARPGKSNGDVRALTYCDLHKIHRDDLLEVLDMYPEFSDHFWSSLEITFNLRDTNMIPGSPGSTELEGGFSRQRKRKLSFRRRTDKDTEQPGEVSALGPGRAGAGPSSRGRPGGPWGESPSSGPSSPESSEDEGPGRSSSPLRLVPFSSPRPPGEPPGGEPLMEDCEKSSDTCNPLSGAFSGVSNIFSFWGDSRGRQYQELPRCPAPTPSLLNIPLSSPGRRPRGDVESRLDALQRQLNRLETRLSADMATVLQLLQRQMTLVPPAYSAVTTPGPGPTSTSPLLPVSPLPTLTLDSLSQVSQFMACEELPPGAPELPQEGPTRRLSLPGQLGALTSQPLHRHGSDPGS
T4 sequence (P41595 whole entry): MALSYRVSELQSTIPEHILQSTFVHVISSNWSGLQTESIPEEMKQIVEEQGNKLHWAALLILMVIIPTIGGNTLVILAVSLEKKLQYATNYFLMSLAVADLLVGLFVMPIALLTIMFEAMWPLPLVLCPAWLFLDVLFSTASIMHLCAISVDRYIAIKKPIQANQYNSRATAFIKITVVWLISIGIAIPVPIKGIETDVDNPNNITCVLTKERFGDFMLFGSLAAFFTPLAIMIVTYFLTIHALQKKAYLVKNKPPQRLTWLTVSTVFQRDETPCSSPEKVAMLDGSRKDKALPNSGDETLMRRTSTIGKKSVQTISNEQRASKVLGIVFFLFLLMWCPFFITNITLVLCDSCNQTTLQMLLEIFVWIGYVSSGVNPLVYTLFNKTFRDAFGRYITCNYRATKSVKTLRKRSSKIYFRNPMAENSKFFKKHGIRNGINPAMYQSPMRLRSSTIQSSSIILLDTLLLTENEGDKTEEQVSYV

As to `COc1cc(C#N)ccc1CCNCc1ccccc1Cl` [Cpd #12], on 5-HT2C receptor, the 50% effective concentration (EC50) is 1.2 µM and the “5-HT2C BRET Eff %” value is given as 130%. Also, in series [1], the midpoint of inhibition, the IC50, lay at 1.72 µM; the “IC50 (hERG)/EC50 (5-HT2A) ratio” value is given as 17; the hERG risk potential entry is “High (compounds exhibiting a IC50 (hERG) /EC50 (5-HT2A) ratio of less than or equal to 150 are generally indicative of high hERG risk potential)”. At 5-HT2A receptor (setting [2]), this compound returned a concentration for a half-maximal effect (EC50) of 102 nM. On 5-HT2A receptor (setting [3]), this compound had a half-maximal effective concentration (EC50) of 102 nM. Besides, the “5-HT2A BRET Eff %” value on 5-HT2A receptor (Table 2) was determined as 90%. Also, the “5-HT2B BRET EC50 (nM) / Eff %” value at 5-HT2B receptor is “Inactive”.
Turning to `COc1cccc(CNCCc2ccc(C#N)cc2OC)c1` [Cpd #28], at 5-HT2C receptor, the half-maximal effective concentration (EC50) was 0.873 µM and the “5-HT2C BRET Eff %” value was found to be 91%. In series [1], the IC50 was 1.6 µM, the “IC50 (hERG)/EC50 (5-HT2A) ratio” value was found to be 19 and the hERG risk potential result was “High (compounds exhibiting a IC50 (hERG) /EC50 (5-HT2A) ratio of less than or equal to 150 are generally indicative of high hERG risk potential)”. The compound also returned an EC50 at 5-HT2A receptor (setting [2]) of 84 nM. Moreover, at 5-HT2A receptor (setting [3]), the 50% effective concentration (EC50) amounted to 84 nM. Moreover, the “5-HT2A BRET Eff %” value at 5-HT2A receptor (Table 2) is recorded as 68%. Also, on 5-HT2B receptor, the “5-HT2B BRET EC50 (nM) / Eff %” value is given as “Inactive”.
As for `COc1cc(C#N)ccc1CCNCc1cccc2c1CCO2` [Cpd #63], on 5-HT2C receptor, the concentration giving a half-maximal response (EC50) amounted to 2.09 µM and the “5-HT2C BRET Eff %” value worked out at 78%. In series [1], inhibition was half-maximal at 1.6 µM (IC50), the “IC50 (hERG)/EC50 (5-HT2A) ratio” value is recorded as 12 and the hERG risk potential result was “High (compounds exhibiting a IC50 (hERG) /EC50 (5-HT2A) ratio of less than or equal to 150 are generally indicative of high hERG risk potential)”. This compound came in with a concentration giving a half-maximal response (EC50) on 5-HT2A receptor (setting [2]) of 135 nM. Further, at 5-HT2A receptor (setting [3]), the EC50 came to 135 nM. For the same compound, the “5-HT2A BRET Eff %” value on 5-HT2A receptor (Table 2) is given as 62%. For the same compound, the “5-HT2B BRET EC50 (nM) / Eff %” value on 5-HT2B receptor was “Inactive”.
Consider `COc1cc(C#N)ccc1CCNCc1cccc2occc12` [Cpd #64], for which, at 5-HT2C receptor, the EC50 is 0.357 µM and the “5-HT2C BRET Eff %” value is listed as 104%. In series [1], the 50% inhibitory concentration (IC50) was determined as 0.9 µM, the “IC50 (hERG)/EC50 (5-HT2A) ratio” value was 30 and the hERG risk potential result was “High (compounds exhibiting a IC50 (hERG) /EC50 (5-HT2A) ratio of less than or equal to 150 are generally indicative of high hERG risk potential)”. For the same compound, the EC50 at 5-HT2A receptor (setting [4]) was 29.8 nM. For the same compound, at 5-HT2A receptor (Table 2), the “5-HT2A BRET Eff %” value is on record as 82%. The EC50 at 5-HT2A receptor (Table 4, unit inferred, read-out: EC50 BRET 2A) stood at 29.8 nM. In addition, the half-maximal effective concentration (EC50) on 5-HT2B receptor (read-out: 5-HT2B BRET EC50) was 8920 nM. Moreover, at 5-HT2B receptor, the “5-HT2B BRET Eff %” value was determined as 93%.
Take `COc1cc(C#N)ccc1CCNCc1cccc2c1OCO2` [Cpd #65]: on 5-HT2C receptor, the EC50 came out at 0.496 µM and the “5-HT2C BRET Eff %” value is 97%. Moreover, in series [1], the IC50 was determined as 2 µM, the “IC50 (hERG)/EC50 (5-HT2A) ratio” value is on record as 102 and the hERG risk potential result was “High (compounds exhibiting a IC50 (hERG) /EC50 (5-HT2A) ratio of less than or equal to 150 are generally indicative of high hERG risk potential)”. This compound showed an EC50 at 5-HT2A receptor (setting [2]) of 19.7 nM. In addition, the response at 5-HT2A receptor (setting [3]) was half-maximal at 19.7 nM (EC50). Moreover, on 5-HT2A receptor (Table 2), the “5-HT2A BRET Eff %” value was 84%. The “5-HT2B BRET EC50 (nM) / Eff %” value on 5-HT2B receptor is “Inactive”.
For the compound `CSc1ccc(CCNCc2ccccc2O)c(O)c1` [Cpd #122], on 5-HT2C receptor, the concentration giving a half-maximal response (EC50) amounted to 0.0036 µM and the “5-HT2C BRET Eff %” value is recorded as 108%. In addition, in series [1], the midpoint of inhibition, the IC50, lay at 0.79 µM and the “IC50 (hERG)/EC50 (5-HT2A) ratio” value came out at 564. Further, the concentration giving a half-maximal response (EC50) on 5-HT2A receptor (setting [2]) turned out to be 1.6 nM. This compound also yielded an EC50 at 5-HT2A receptor (setting [3]) of 1.4 nM. Further, the “5-HT2A BRET Eff %” value at 5-HT2A receptor (Table 2) was determined as 92%. Moreover, the “5-HT2B BRET EC50 (nM) / Eff %” value on 5-HT2B receptor is “inactive”.
With `COc1cc(Oc2ccccc2)ccc1CCNCc1ccccc1O` [Cpd #127], the EC50 was found to be 0.148 µM at 5-HT2C receptor, 27.1 nM at 5-HT2A receptor (setting [4]) and 3.8 nM on 5-HT2B receptor (read-out: 5-HT2B BRET EC50). Moreover, on 5-HT2C receptor, the “5-HT2C BRET Eff %” value turned out to be 104%. The “5-HT2A BRET Eff %” value on 5-HT2A receptor (Table 2) came out at 100%. Also, the “5-HT2B BRET Eff %” value on 5-HT2B receptor was −20%.
`COc1cc(C#N)c(F)cc1CCNCc1ccccc1SC` [Cpd #128]: the figures for the EC50 on 5-HT2C receptor, at 5-HT2A receptor (setting [2]) and at 5-HT2B receptor (5-HT2B BRET EC50 (nM)) were 0.114 µM, 7.8 nM and 723 nM, respectively. Further, on 5-HT2C receptor, the “5-HT2C BRET Eff %” value worked out at 118%. Besides, the “5-HT2A BRET Eff %” value at 5-HT2A receptor (Table 2) came out at 99%. Also, the “5-HT2B BRET Eff %” value at 5-HT2B receptor is given as 109%.
As to `N#Cc1cc(O)c(CCNCc2ccccc2O)cc1F` [Cpd #129], the results for the concentration for a half-maximal effect (EC50) on 5-HT2C receptor, at 5-HT2A receptor (setting [2]) and at 5-HT2B receptor (5-HT2B BRET EC50 (nM)) were 0.067 µM, 7.8 nM and 249 nM, respectively. Also, the “5-HT2C BRET Eff %” value at 5-HT2C receptor was determined as 105%. Further, the “5-HT2A BRET Eff %” value on 5-HT2A receptor (Table 2) worked out at 95%. The “5-HT2B BRET Eff %” value at 5-HT2B receptor was 62%.
Consider `COc1ccccc1CNCCc1ccc(F)cc1O` [Cpd #130], for which, on 5-HT2C receptor, the concentration for a half-maximal effect (EC50) is 0.0087 µM and the “5-HT2C BRET Eff %” value came out at 101%. This compound also yielded an EC50 on 5-HT2A receptor (setting [2]) of 18 nM. Further, the “5-HT2A BRET Eff %” value on 5-HT2A receptor (Table 2) is listed as 84%. Besides, the “5-HT2B BRET EC50 (nM) / Eff %” value on 5-HT2B receptor is recorded as “Inactive”.
Regarding `Cc1ccc(CCNCc2cccc3c2OCO3)c(O)c1` [Cpd #132], the EC50 at 5-HT2C receptor stood at 0.77 µM; at 5-HT2A receptor (setting [2]) it was 49 nM. On 5-HT2C receptor, the “5-HT2C BRET Eff %” value is given as 84%. For the same compound, at 5-HT2A receptor (Table 2), the “5-HT2A BRET Eff %” value is reported as 70%. In addition, at 5-HT2B receptor, the “5-HT2B BRET EC50 (nM) / Eff %” value is given as “Inactive”.
